Where no end group is shown, it is not given here.

The subject of data set [1] is Fusarium culmorum.
Data set [2] deals with Phytophthora infestans.
Data set [3] can be described thus: Freshly isolated potato intercellular wash fluid (pIWF). Conditions: Russet Burbank potato, up to 5 minutes.
For data set [4], the system named is S. nodorum.

“MAVPKKRTSISKKRIRKKIWKRKGYWTSLKAFSLGKSLSTGNSKSFFVQQNK [BL32]”: the IC50 in data set [1] came out at 1.6 µM; in data set [2], 6.6 µM.
Take “VKVGLATKAERASRQQRKQRKNRQKTLRGTRKVKGAKAKK”: the cleaved bond result in data set [3] is “A-T and L-R and R-G and R-K”.
Take “MKIRASIRRISGKSRPIRRRKRVMIISSNPRHKQKQG [BL36]”: the IC50 in data set [1] was found to be 2.3 µM; in data set [2], 3.4 µM.
With “VKVGLATKAERASRQQRKQRKNRQKTLMGTAQVKGAKAKK”, the cleaved bond result in data set [3] was “A-T and L-M and M-G and A-Q”.
With “VKVGLATKAERASRQQRKQRKNRQKTLRGTAKVKGAKAKK”, the cleaved bond entry in data set [3] was “A-T and L-R and R-G and A-K”.
Take “VKVGLATKAERASRQQRKQRKNRQKTLMGTAKVKGAKAKK”: the cleaved bond entry in data set [3] was “A-T and L-M and M-G and A-K”.
Consider `CSCC[C@H](N)C(=O)N[C@@H](CCCNC(=N)N)C(=O)N[C@@H](C)C(=O)N[C@@H](CCCCN)C(=O)N[C@@H](Cc1c[nH]c2ccccc12)C(=O)N[C@@H](CCCNC(=N)N)C(=O)N[C@@H](CCCCN)C(=O)N[C@@H](CCCCN)C(=O)N[C@@H](CCCNC(=N)N)C(=O)N[C@H](C(=O)N[C@@H](CCCNC(=N)N)C(=O)N[C@@H](CCCNC(=N)N)C(=O)N[C@@H](CC(C)C)C(=O)N[C@@H](CCCCN)C(=O)N[C@@H](CCCNC(=N)N)C(=O)N[C@@H](CCCCN)C(=O)N[C@@H](CCCNC(=N)N)C(=O)N[C@@H](CCCNC(=N)N)C(=O)N[C@@H](CCCCN)C(=O)N[C@H](C(=O)N[C@@H](CCCNC(=N)N)C(=O)N[C@@H](C)C(=O)N[C@@H](CCCNC(=N)N)C(=O)N[C@@H](CO)C(=O)N[C@@H](CCCCN)C(=O)O)C(C)C)[C@@H](C)O` [YL41], for which the figures for the IC50 in data set [1] and in data set [2] were 1.2 µM and 4.5 µM, respectively.
“VKVGLATKAERASRQQRKQRKNRQKTLRGTAKVKGAKAKK [Synthetic FCWP1]”: in data set [1], the “IC50 F. culmorum High salt” value turned out to be 85 µg/mL and the “IC50 F. culmorum Low salt” value was 6 µg/mL. Also, in data set [2], the “IC50 P. infestans High salt” value amounted to 20 µg/mL and the “IC50 P. infestans Low salt” value was 10 µg/mL. Also, in data set [4], the “IC50 S. nodorum High salt” value is greater than 170 µg/mL and the “IC50 S. nodorum Low salt” value came out at 22 µg/mL.
In the case of “VKVGLATKAERASRQQRKQRKNRQKTRRGTRKVKGAKAKK”, the cleaved bond entry in data set [3] was “A-T and T-R and G-T and R-K”.
Same read-out and setting: for “VKVGLATKAERASRQQRKQRKNRQKTRRGTAKVKGAKAKK” the value was “R-R and G-T and A-K and A-T”; for “VKVGLATKAERASRQQRKQRKNRQKTLRGTAQVKGAKAKK”, “A-T and L-R and R-G and A-Q”.
With “MNSHRLPGKGRRMGPIMGHTMHYRRMIITLQSSYSIPPLRKKRT [SL23]”, the figures for the IC50 in data set [1] and in data set [2] were 2.5 µM and 7.7 µM, respectively.

As usually defined, the IC50 is the midpoint of a concentration-inhibition curve.
